Results as given in patent publication US7001997B2, “Proteins, their production and use” (Takeda Chemical Industries, Ltd., priority 1996, dated 2006).
pIC50: −log10 of the molar value.

Assays:
[1] = target: T1, human liver-derived metalloprotease (Homo sapiens, UniProt Q99542); test: Inhibitor screening system with fluorogenic substrate DNP-Pro-Cha-Abu-Cys(Me)-His-Ala-Lys(N-Me-Abz)-NH2; type: biochemical; design: the objective metalloprotease of about 46 kDa was eluted with buffer E (QIAexpress System); 6xHis (vector-encoded N-terminal tag of pQE30); made in house; host or cells: Escherichia coli JM109/pNHMB; conditions: 10 μM substrate, 37° C., 16 hours, excitation 365 nm, emission 460 nm; read-out: 50% inhibitory concentration of metalloprotease activity
T1 sequence (Q99542 98-508): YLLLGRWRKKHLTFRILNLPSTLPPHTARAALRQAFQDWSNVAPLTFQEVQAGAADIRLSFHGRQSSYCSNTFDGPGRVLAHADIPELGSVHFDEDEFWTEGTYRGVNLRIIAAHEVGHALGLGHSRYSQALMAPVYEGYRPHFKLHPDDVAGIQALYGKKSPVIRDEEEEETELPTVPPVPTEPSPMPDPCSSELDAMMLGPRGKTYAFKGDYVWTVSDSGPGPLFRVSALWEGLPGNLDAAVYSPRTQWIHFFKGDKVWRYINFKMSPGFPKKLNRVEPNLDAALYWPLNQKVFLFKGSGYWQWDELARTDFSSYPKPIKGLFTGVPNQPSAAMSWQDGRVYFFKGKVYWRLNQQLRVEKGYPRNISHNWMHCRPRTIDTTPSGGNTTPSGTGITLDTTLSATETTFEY
Description: A 96-well plate (Fluoro B Plate, Dainippon Pharmaceutical) was filled in with 30 μL of buffer (0.25 M Tris-HCl (pH 8.0), 5 mM CaCl2, 100 mM NaCl, 10 μM ZnCl2) and 20 μL of the recombinant human liver-derived metalloprotease (2.4 mg/ml) obtained in Example 5. […] When actinonin (Peptide Institute), a metalloprotease inhibitor, was added at a varying concentration to this reaction mixture, it inhibited metalloprotease activity with a 50% inhibitory concentration of about 10 μM. It was, therefore, clear that this assay system can be used for the screening of inhibitors of the human liver-derived metalloprotease.

[2] = target: T1, human liver-derived metalloprotease; test: PER assay of casein hydrolyzing activity in culture supernatant of COS-7 cells transfected with pTB1921; type: biochemical; design: expressed in transfected cells; host or cells: COS-7; conditions: supernatant activated with 1 mM aminophenyl-mercuric acetate, 37° C., 30 minutes
Description: Add aminophenyl mercuric acetate (final concentration 1 mM) to the protein of the present invention and react at 37° C. for 30 minutes. Electrophorese the reaction mixture on SDS-polyacrylamide gels (non-reducing) in accordance with PER (F. T. Lundy et al., Electrophoresis, 16, 43, 1995). Then, saturate the polyacrylamide gels with the substrate and react in the reaction medium at 37° C. for 16 hours. After the reaction, stain the gels with CBB to detect a proteolytic activity.
The pTB1921 obtained in Example 1, which had been inserted into the expression plasmied pCMV·SPORT (GIBCO/BRL), was used for expression in animal cells. The COS-7 cell line (purchased from the Institute for Fermentation, Osaka) was cultured in serum-containing DMEM and subcultured on the day before introduction of the gene. When the culture became 50% confluent, the COS-7 cells were washed with serum-free DMEM, and 2.5 ml of serum-free medium was added. […]
To the cell culture supernatant obtained in Example 2 was added aminophenyl-mercuric acetate (final concentration 1 mM) and the reaction was carried out at 37° C. for 30 minutes. The activity was then determined by the PER assay (F. T. Lundy et al., Electrophoresis, 16, 43, 1995). As a result, casein hydrolyzing activity which was not found in the mock culture supernatant was detected in the culture supernatant of COS-7 cells transfected with pTB1921.

Question: With `CCCCC[C@H](CC(=O)NO)C(=O)N[C@H](C(=O)N1CCC[C@H]1CO)C(C)C` [actinonin] as the molecule, how does the pIC50 [1] read?
Answer: ~5.00

Question: For `c1cnc2c(c1)ccc1cccnc12` [o-phenanthroline], which “inhibition of casein hydrolyzing activity” value [2] is on record?
Answer: inhibited
